Test results published in PubChem BioAssay (NCI).
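Grown in 96-well plates, cells were treated for 48 hours with each compound at five concentrations. Insufficient inhibition: endpoint recorded as highest concentration tested. Here, GI50 denotes the concentration required for 50% inhibition of growth. TGI is the concentration that stops growth completely.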

Experiments:
Experiment in all cases: NCI tumour cell line growth inhibition, 48 h
DMS 273 small cell lung = test system: DMS 273 small cell lung
M19-MEL melanoma = test system: M19-MEL melanoma
DMS 114 small cell lung = test system: DMS 114 small cell lung
KM20L2 colon = test system: KM20L2 colon
DLD-1 colon = test system: DLD-1 colon
LXFL 529 NSCLC = test system: LXFL 529 NSCLC
HOP-18 NSCLC = test system: HOP-18 NSCLC
HS 578T breast = test system: HS 578T breast
DU-145 prostate = test system: DU-145 prostate
BT-549 breast = test system: BT-549 breast
MDA-MB-231 breast = test system: MDA-MB-231 breast
SNB-78 CNS = test system: SNB-78 CNS
XF 498 CNS = test system: XF 498 CNS
P388 leukemia = test system: P388 leukemia
P388/ADR leukemia = test system: P388/ADR leukemia
SN12K1 renal = test system: SN12K1 renal

SMILES | TGI (DMS 273 small cell lung) [µM] | TGI (M19-MEL melanoma) [µM] | TGI (DMS 114 small cell lung) [µM] | TGI (KM20L2 colon) [µM] | TGI (DLD-1 colon) [µM] | TGI (LXFL 529 NSCLC) [µM] | TGI (HS 578T breast) [µM] | TGI (DU-145 prostate) [µM] | TGI (BT-549 breast) [µM] | TGI (MDA-MB-231 breast) [µM] | TGI (XF 498 CNS) [µM] | further results
NC(=S)N/N=C/c1nccc2ccccc12 | 12.9 | 3.41 | 2.51 | > 100 | > 100 | > 100 |  |  |  |  |  | TGI (HOP-18 NSCLC): > 100 µM
c1ccc(N2N=C(c3cccc(Nc4ccncc4)c3)CC2c2ccc3c(c2)OCO3)cc1 (stereo not given) |  |  |  |  |  |  | 3.42 | 3.66 | 4.06 |  |  | GI50 (HS 578T breast): 1.55 µM; GI50 (DU-145 prostate): 1.85 µM; GI50 (BT-549 breast): 1.83 µM
CC[C@@H]1ON(C)[C@H]2CN(C)C(=O)[C@@H]12 |  |  |  |  |  |  | > 100 | > 100 |  | > 100 |  | 
COc1nc2ccc(COc3ccc(C(=O)NC(CCC(=O)O)C(=O)O)cc3)cc2nc1OC (stereo not given) |  |  |  |  |  |  | > 10 | > 10 |  | > 10 |  | 
Cc1nc2c(c(=O)[nH]1)S/C(=C(/C#N)c1nc3ccccc3[nH]1)N2c1ccccc1 | > 100 | > 100 | > 100 | > 100 | > 100 | > 100 |  |  |  |  | > 100 | TGI (SNB-78 CNS): > 100 µM
CC(=O)N1N=C(c2ccc3ccccc3c2O)CC1c1cccs1 (stereo not given) |  |  |  |  |  |  | > 100 | > 100 | 83.9 | > 100 |  | 
COc1ccc2c(c1O)-c1cc(O)cc3c1[C@@H](C2)N(C)CC3 | 127 | 128 |  | 31.2 | 121 |  |  |  |  |  | 160 | TGI (SNB-78 CNS): 212 µM; TGI (P388 leukemia): 106 µM; TGI (P388/ADR leukemia): 180 µM; TGI (SN12K1 renal): 122 µM
O=C1C(Cl)N(c2cccc(Cl)c2)C1c1c[nH]c2ccccc12 (stereo not given) |  | > 100 | > 100 | > 100 |  | > 100 |  |  |  |  | > 100 | 
COc1ccc(-c2csc(=Nc3ccccc3)n2CCCN(C)C)cc1 |  |  |  |  |  |  |  |  | 37.3 | > 100 |  | 
COc1cc(C2S/C(=C/c3ccccc3)C(=O)N2c2ccc(NC(C)=O)cc2)cc(OC)c1OC (stereo not given) |  |  |  |  |  |  | 83.2 |  | 65.4 | 41.3 |  | 
